Values quoted from earlier work, collected in publication PMC3076957 (Chemico-biological interactions, 2008).
Blank lines part the entries; values can stand above or below the compound they belong to.

Tests used:
[1] = target: T1, AKR1C3 (Homo sapiens, UniProt P42330); assay: enzyme inhibition assay; details: read-out: IC50 values (μM) / AKR1C3
T1 sequence (P42330 1-323): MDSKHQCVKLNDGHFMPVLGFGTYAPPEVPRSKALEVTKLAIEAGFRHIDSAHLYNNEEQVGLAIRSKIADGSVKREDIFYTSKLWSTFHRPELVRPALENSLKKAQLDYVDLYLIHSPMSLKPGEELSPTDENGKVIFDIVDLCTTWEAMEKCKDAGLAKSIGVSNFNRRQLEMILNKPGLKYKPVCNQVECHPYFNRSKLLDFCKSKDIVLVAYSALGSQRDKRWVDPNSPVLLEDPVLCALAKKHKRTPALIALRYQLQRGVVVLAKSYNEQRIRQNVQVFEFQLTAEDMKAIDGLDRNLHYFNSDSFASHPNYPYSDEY

[2] = target: T1, AKR1C3; assay: inhibition of androstenedione reduction, Lineweaver-Burk; type: biochemical
[3] = target: T1, AKR1C3; assay: inhibition of […],10-phenanthrenequinone reduction; type: biochemical; details: read-out: IC50 values (μM) / AKR1C3
[4] = target: AKR1C2 (Homo sapiens, UniProt P52895); details: read-out: IC50 values (μM) / AKR1C2
Chain of AKR1C2 (P52895 whole entry): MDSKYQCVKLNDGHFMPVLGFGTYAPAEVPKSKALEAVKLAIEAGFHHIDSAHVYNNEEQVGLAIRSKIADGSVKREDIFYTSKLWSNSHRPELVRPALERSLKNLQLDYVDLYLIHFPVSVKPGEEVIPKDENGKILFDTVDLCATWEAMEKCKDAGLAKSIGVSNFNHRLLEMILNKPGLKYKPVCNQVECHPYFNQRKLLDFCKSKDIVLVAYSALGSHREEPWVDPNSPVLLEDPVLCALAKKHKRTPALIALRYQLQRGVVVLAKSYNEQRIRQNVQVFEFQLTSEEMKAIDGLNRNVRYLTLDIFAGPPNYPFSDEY

Ki [1]: 1.9 µM
SMILES: O=C(O)c1ccc(C(=O)c2ccccc2)cc1 [4-Benzoyl-benzoic acid]

SMILES: O=C(O)c1ccc(Nc2ccc([N+](=O)[O-])cc2[N+](=O)[O-])cc1 [4-Carboxy-2′,4′-dinitrodiphenylamine]
Ki [1]: 0.38 µM

Ki [2]: 6 µM
SMILES: COc1ccc2c(c1)c(CCNC(C)=O)cn2C(=O)c1ccc(Cl)cc1 [CBM, N-(4-chlorobenzoyl)-melatonin]

IC50 [3]: 0.7 µM
SMILES: Cc1ccc(Cl)c(Nc2ccccc2C(=O)O)c1Cl [Meclofenamic Acid]

IC50 [4]: 1.2 µM
SMILES: COc1ccc2cc([C@H](C)C(=O)O)ccc2c1 [Naproxen]
